# Reference: patent US12378500B2, “Liquid laundry product comprising a fragrance composition comprising isopulegol” (TAKASAGO INTERNATIONAL CORPORATION, priority 2016, dated 2025)
# System: human brain
# Experiment: CNV (Contingent Negative Variation) method, inhalation of fragrance compositions by a panel of subjects
# Type: in vivo
# Details: 2 wt % isopulegol added to fragrance A; fragrance A as control; inhaled; panel of 7 subjects; FIG. 3
# Method: The stimulating effect of isopulegol was determined by the CNV (Contingent Negative Variation) method as described below and briefly summarized in FIGS. 1 and 2.
# The CNV was measured using a digital electroencephalograph BIOSEMi (registered trademark). Electrodes for the CNV measurement were placed at Fp1, Fp2, F4, Fz, F3, T7, C3, Cz, C4, T8, P4, Pz, P3, O1, Oz, O2 according to the international 10-20 system, electrodes for ear lobes were set to indifferent electrodes, and brain waves were recorded at a time constant of 5.0 seconds referenced to the linked earlobes. In order to check artifacts of eye movement to a brain wave, vertical and horizontal movements of the left eye were also recorded.
# Confirmation of a stimulative effect of a sample was conducted by steps of delivering a warning stimulus S1 (tone of 60-65 dB), followed 2300 ms later by a second stimulus S2 (light source). Test fragrance compositions were inhaled from jars disposed a few (e.g. 15-20) centimetres from the subjects' nose during each period of acquisition. […] The base line was determined from an average voltage of a brain wave in a time period of 500 ms before S1. The evaluation of the CNV waveform was conducted according to the method of Tori et al. (op. cit.), in which CNV was evaluated by the area (unit: ms×[…]) of an early component between 400 ms to 1,000 ms after the warning sound stimulus (S1).
structure (smiles),measurement,value
C=C(C)[C@@H]1CC[C@@H](C)C[C@H]1O (racemic) [isopulegol],CNV activity (area under the curve) of fragrance A + isopulegol versus fragrance A alone,enhances the CNV activity of fragrance A
